Assay [1] deals with T1, CodB (Proteus vulgaris, UniProt A0A6G6SKI1). The assay is described as follows: GFP thermostability assay titration (Kd); inhibition of 3H-cytosine uptake in cells. Format: binding. The arrangement: CodB from P. vulgaris expressed as CodB-GFP fusion, detergent-solubilised membranes.
In assay [2] the target is T1, CodB. The assay is described as follows: crystal structure at […] Å; GFP thermostability assay titration (Kd); sodium-dependent 3H-cytosine uptake in cells. Type of assay: binding. The arrangement: CodB from P. vulgaris expressed as CodB-GFP fusion (GFP-TS assay); cleaved with 3C protease for crystallisation.

T1 sequence (A0A6G6SKI1 entry or part of it): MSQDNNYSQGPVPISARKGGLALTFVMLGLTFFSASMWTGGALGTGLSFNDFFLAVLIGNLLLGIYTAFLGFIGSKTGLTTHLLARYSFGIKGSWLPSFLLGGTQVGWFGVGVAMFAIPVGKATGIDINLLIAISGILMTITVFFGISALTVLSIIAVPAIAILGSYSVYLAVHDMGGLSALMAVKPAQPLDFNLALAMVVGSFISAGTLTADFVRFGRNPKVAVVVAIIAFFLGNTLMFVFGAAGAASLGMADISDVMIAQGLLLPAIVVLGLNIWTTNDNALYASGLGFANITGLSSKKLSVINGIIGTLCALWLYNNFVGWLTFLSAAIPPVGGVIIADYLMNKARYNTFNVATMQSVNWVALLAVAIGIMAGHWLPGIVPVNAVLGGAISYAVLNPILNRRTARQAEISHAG

Usually Kd stands for the concentration at which binding is half-saturated. For the molecule `Nc1nc(=O)[nH]cc1F` [5-fluorocytosine], binding at CodB [1] was characterised by a dissociation constant (Kd) of 285 ± 39 µM.
As for `Nc1cc[nH]c(=O)n1` [cytosine], the Kd at CodB [2] amounted to 51 ± 9 µM.

The values above are taken from paper PMC9379551, “Structure of cytosine transport protein CodB provides insight into nucleobase‐cation symporter 1 mechanism” (The EMBO Journal, 2022).
